Test results reported in PubChem BioAssay (NCI).
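These data come from cells grown in 96-well plates and exposed to compound for 48 hours at five concentrations. TGI: concentration producing complete growth inhibition.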

What was measured:
Assay in all cases: DTP human tumour cell line panel, 48 h
A498 renal = system: A498 renal
A549 NSCLC = system: A549 NSCLC
ACHN renal = system: ACHN renal
CAKI-1 renal = system: CAKI-1 renal
CCRF-CEM leukemia = system: CCRF-CEM leukemia
COLO 205 colon = system: COLO 205 colon
DLD-1 colon = system: DLD-1 colon
DMS 114 small cell lung = system: DMS 114 small cell lung
DMS 273 small cell lung = system: DMS 273 small cell lung
EKVX NSCLC = system: EKVX NSCLC
HCC-2998 colon = system: HCC-2998 colon
HCT-116 colon = system: HCT-116 colon
HCT-15 colon = system: HCT-15 colon
HOP-18 NSCLC = system: HOP-18 NSCLC
HOP-62 NSCLC = system: HOP-62 NSCLC
HOP-92 NSCLC = system: HOP-92 NSCLC
HT29 colon = system: HT29 colon
IGROV1 ovarian = system: IGROV1 ovarian
K-562 leukemia = system: K-562 leukemia
KM12 colon = system: KM12 colon
KM20L2 colon = system: KM20L2 colon
LXFL 529 NSCLC = system: LXFL 529 NSCLC
M14 melanoma = system: M14 melanoma
M19-MEL melanoma = system: M19-MEL melanoma
MALME-3M melanoma = system: MALME-3M melanoma
MOLT-4 leukemia = system: MOLT-4 leukemia
NCI-H226 lung = system: NCI-H226 lung
NCI-H23 lung = system: NCI-H23 lung
NCI-H522 lung = system: NCI-H522 lung
OVCAR-3 ovarian = system: OVCAR-3 ovarian
OVCAR-4 ovarian = system: OVCAR-4 ovarian
OVCAR-5 ovarian = system: OVCAR-5 ovarian
OVCAR-8 ovarian = system: OVCAR-8 ovarian
RXF-631 renal = system: RXF-631 renal
SF-268 CNS = system: SF-268 CNS
SF-295 CNS = system: SF-295 CNS
SF-539 CNS = system: SF-539 CNS
SK-MEL-2 melanoma = system: SK-MEL-2 melanoma
SK-MEL-28 melanoma = system: SK-MEL-28 melanoma
SK-MEL-5 melanoma = system: SK-MEL-5 melanoma
SK-OV-3 ovarian = system: SK-OV-3 ovarian
SN12C renal = system: SN12C renal
SNB-75 CNS = system: SNB-75 CNS
SNB-78 CNS = system: SNB-78 CNS
SR leukemia = system: SR leukemia
SW-620 colon = system: SW-620 colon
TK-10 renal = system: TK-10 renal
U251 CNS = system: U251 CNS
UACC-257 melanoma = system: UACC-257 melanoma
UACC-62 melanoma = system: UACC-62 melanoma
UO-31 renal = system: UO-31 renal
786-0 renal = system: 786-0 renal
HL-60(TB) leukemia = system: HL-60(TB) leukemia
LOX IMVI melanoma = system: LOX IMVI melanoma
NCI-H460 lung = system: NCI-H460 lung
RPMI-8226 leukemia = system: RPMI-8226 leukemia
RXF 393 renal = system: RXF 393 renal
SNB-19 CNS = system: SNB-19 CNS
XF 498 CNS = system: XF 498 CNS

With `O=P(Nc1ccc(Cl)cc1)(Oc1ccccc1)N(CCCl)CCCl` (stereo not drawn) the TGI (A498 renal) was > 100 µM, the TGI (A549 NSCLC) was > 100 µM and the TGI (ACHN renal) was > 100 µM. The TGI (CAKI-1 renal) was > 100 µM, the TGI (CCRF-CEM leukemia) was > 100 µM and the TGI (COLO 205 colon) was > 100 µM. The TGI (DLD-1 colon) was > 100 µM, the TGI (DMS 114 small cell lung) was > 100 µM and the TGI (DMS 273 small cell lung) was > 100 µM. For the same molecule, the TGI (EKVX NSCLC) was > 100 µM, the TGI (HCC-2998 colon) was > 100 µM and the TGI (HCT-116 colon) was > 100 µM. The TGI (HCT-15 colon) was > 100 µM, the TGI (HOP-18 NSCLC) was > 100 µM and the TGI (HOP-62 NSCLC) was > 100 µM. For the same molecule, the TGI (HOP-92 NSCLC) was > 100 µM, the TGI (HT29 colon) was > 100 µM and the TGI (IGROV1 ovarian) was > 100 µM. The TGI (K-562 leukemia) was > 100 µM, the TGI (KM12 colon) was > 100 µM and the TGI (KM20L2 colon) was > 100 µM. For the same molecule, the TGI (LXFL 529 NSCLC) was > 100 µM, the TGI (M14 melanoma) was > 100 µM and the TGI (M19-MEL melanoma) was > 100 µM. For the same molecule, the TGI (MALME-3M melanoma) was > 100 µM, the TGI (MOLT-4 leukemia) was > 100 µM and the TGI (NCI-H226 lung) was > 100 µM. The TGI (NCI-H23 lung) was > 100 µM, the TGI (NCI-H522 lung) was > 100 µM and the TGI (OVCAR-3 ovarian) was > 100 µM. For the same molecule, the TGI (OVCAR-4 ovarian) was > 100 µM, the TGI (OVCAR-5 ovarian) was > 100 µM and the TGI (OVCAR-8 ovarian) was > 100 µM. The TGI (RXF-631 renal) was > 100 µM, the TGI (SF-268 CNS) was > 100 µM and the TGI (SF-295 CNS) was > 100 µM. The TGI (SF-539 CNS) was > 100 µM, the TGI (SK-MEL-2 melanoma) was > 100 µM and the TGI (SK-MEL-28 melanoma) was > 100 µM. For the same molecule, the TGI (SK-MEL-5 melanoma) was > 100 µM, the TGI (SK-OV-3 ovarian) was > 100 µM and the TGI (SN12C renal) was > 100 µM. For the same molecule, the TGI (SNB-75 CNS) was > 100 µM, the TGI (SNB-78 CNS) was > 100 µM and the TGI (SR leukemia) was > 100 µM. For the same molecule, the TGI (SW-620 colon) was > 100 µM, the TGI (TK-10 renal) was > 100 µM and the TGI (U251 CNS) was > 100 µM. The TGI (UACC-257 melanoma) was > 100 µM, the TGI (UACC-62 melanoma) was > 100 µM and the TGI (UO-31 renal) was > 100 µM.
For `Cn1c(=O)c(C(c2ccc([N+](=O)[O-])cc2)c2c(O)c3ccccc3n(C)c2=O)cc2ccccc21` (stereo not drawn), the TGI (786-0 renal) was > 100 µM, the TGI (A549 NSCLC) was > 100 µM and the TGI (ACHN renal) was > 100 µM. For the same molecule, the TGI (CAKI-1 renal) was > 100 µM, the TGI (COLO 205 colon) was > 100 µM and the TGI (DLD-1 colon) was > 100 µM. The TGI (DMS 114 small cell lung) was > 100 µM, the TGI (DMS 273 small cell lung) was > 100 µM and the TGI (EKVX NSCLC) was > 100 µM. For the same molecule, the TGI (HCC-2998 colon) was > 100 µM, the TGI (HCT-116 colon) was > 100 µM and the TGI (HCT-15 colon) was > 100 µM. For the same molecule, the TGI (HL-60(TB) leukemia) was > 100 µM, the TGI (HOP-18 NSCLC) was > 100 µM and the TGI (HOP-62 NSCLC) was 75.2 µM. For the same molecule, the TGI (HOP-92 NSCLC) was > 100 µM, the TGI (HT29 colon) was > 100 µM and the TGI (IGROV1 ovarian) was > 100 µM. For the same molecule, the TGI (K-562 leukemia) was > 100 µM, the TGI (KM12 colon) was > 100 µM and the TGI (KM20L2 colon) was > 100 µM. The TGI (LOX IMVI melanoma) was > 100 µM, the TGI (LXFL 529 NSCLC) was > 100 µM and the TGI (M14 melanoma) was > 100 µM. For the same molecule, the TGI (M19-MEL melanoma) was > 100 µM, the TGI (MALME-3M melanoma) was 73.2 µM and the TGI (MOLT-4 leukemia) was > 100 µM. The TGI (NCI-H226 lung) was 64 µM, the TGI (NCI-H23 lung) was > 100 µM and the TGI (NCI-H460 lung) was > 100 µM. The TGI (NCI-H522 lung) was > 100 µM, the TGI (OVCAR-3 ovarian) was > 100 µM and the TGI (OVCAR-4 ovarian) was > 100 µM. The TGI (OVCAR-5 ovarian) was 92.7 µM, the TGI (OVCAR-8 ovarian) was > 100 µM and the TGI (RPMI-8226 leukemia) was > 100 µM. For the same molecule, the TGI (RXF 393 renal) was > 100 µM, the TGI (RXF-631 renal) was > 100 µM and the TGI (SF-268 CNS) was > 100 µM. For the same molecule, the TGI (SF-295 CNS) was > 100 µM, the TGI (SF-539 CNS) was > 100 µM and the TGI (SK-MEL-2 melanoma) was > 100 µM. The TGI (SK-MEL-28 melanoma) was > 100 µM, the TGI (SK-MEL-5 melanoma) was > 100 µM and the TGI (SK-OV-3 ovarian) was > 100 µM. For the same molecule, the TGI (SN12C renal) was > 100 µM, the TGI (SNB-19 CNS) was > 100 µM and the TGI (SNB-75 CNS) was 85.1 µM. For the same molecule, the TGI (SNB-78 CNS) was > 100 µM, the TGI (SR leukemia) was > 100 µM and the TGI (SW-620 colon) was > 100 µM. It also gave a TGI (TK-10 renal) of 84.7 µM, a TGI (U251 CNS) of 66.8 µM and a TGI (UACC-257 melanoma) of 45.3 µM. The TGI (UACC-62 melanoma) was 42.3 µM, the TGI (UO-31 renal) was > 100 µM and the TGI (XF 498 CNS) was > 100 µM.
